Reference: article PMC6058519, “Retro-inverso follicle-stimulating hormone peptide-mediated polyethylenimine complexes for targeted ovarian cancer gene therapy” (Drug Delivery, 2018)
Where no end group is shown, it is not given here.

Columns and labels:
[1] = In vitro stability of peptides in 20% rat serum; format: in vitro ADME; details: 37 °C, peptide 0.5 mg/mL, incubation up to 12 h, RP-HPLC C18, UV 214 nm, triplicate
Experimental: The L-FP21 and D-FP21 peptides were diluted to 0.5 mg/mL and incubated at 37 °C for 12 h for the biostability test against 20% rat serum. At predetermined time intervals, 100 μL of the sample was removed and analyzed using reverse-phase high-performance liquid chromatography (HPLC; Waters Acquity H-Class Bio, Waters Co. Ltd., Milford, MA) on a bridged ethylene hybrid (BEH) C18 column (2.1 mm ×50 mm, 1.7 μm) using a gradient method. The mobile phase A was purified water containing 0.1% (v/v) formic acid (FA). The mobile phase B was acetonitrile containing 0.1% FA. The 30-min linear elution gradient ran from 5% B to 45% B in […] at a flow rate of 0.6 mL/min with a detection wavelength of 214 nm. We used aminopeptidase to further investigate the stability of L-FP21 or D-FP21 in proteolytic enzymes. The aminopeptidase was added with a final concentration of 1 μg/mL. The peptides were then analyzed as described above. All the experiments were performed in triplicate.

[2] = biological target: T1, Aminopeptidase M (leucine aminopeptidase, microsomal from porcine kidney) (Sus scrofa, UniProt P15145); assay: In vitro stability of peptides against aminopeptidase M; format: in vitro ADME; details: aminopeptidase M 1 μg/mL, 37 °C, peptide 0.5 mg/mL, incubation up to 12 h, RP-HPLC C18, UV 214 nm, triplicate
T1 construct: purchased Sigma-Aldrich; host or cells: porcine kidney microsomes (tissue-derived)
T1 sequence (P15145 1-963): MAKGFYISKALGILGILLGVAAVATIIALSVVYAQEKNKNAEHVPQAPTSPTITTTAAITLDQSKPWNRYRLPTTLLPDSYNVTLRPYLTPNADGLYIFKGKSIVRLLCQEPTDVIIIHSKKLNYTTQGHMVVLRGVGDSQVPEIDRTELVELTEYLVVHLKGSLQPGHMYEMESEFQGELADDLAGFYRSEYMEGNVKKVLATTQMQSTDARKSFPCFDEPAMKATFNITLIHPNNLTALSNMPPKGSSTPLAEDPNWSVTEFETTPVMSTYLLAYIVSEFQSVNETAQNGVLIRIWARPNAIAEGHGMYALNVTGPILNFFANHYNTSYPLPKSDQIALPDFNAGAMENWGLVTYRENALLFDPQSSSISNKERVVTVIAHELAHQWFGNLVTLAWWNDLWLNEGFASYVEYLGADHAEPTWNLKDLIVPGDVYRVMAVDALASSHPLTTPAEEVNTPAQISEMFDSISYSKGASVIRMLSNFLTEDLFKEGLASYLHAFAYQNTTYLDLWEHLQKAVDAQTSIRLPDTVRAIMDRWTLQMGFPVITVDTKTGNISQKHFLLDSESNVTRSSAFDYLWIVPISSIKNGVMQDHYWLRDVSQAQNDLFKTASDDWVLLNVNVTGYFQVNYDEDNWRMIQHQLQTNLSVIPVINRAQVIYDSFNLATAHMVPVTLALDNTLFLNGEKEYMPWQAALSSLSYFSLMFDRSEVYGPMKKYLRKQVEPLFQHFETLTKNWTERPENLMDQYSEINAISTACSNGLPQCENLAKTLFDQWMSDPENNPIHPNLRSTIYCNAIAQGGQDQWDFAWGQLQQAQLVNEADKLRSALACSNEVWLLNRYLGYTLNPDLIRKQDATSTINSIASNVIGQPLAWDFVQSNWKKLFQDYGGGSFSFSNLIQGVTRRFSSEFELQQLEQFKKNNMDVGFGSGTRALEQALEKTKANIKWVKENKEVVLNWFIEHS
From the text: L-FP21, D-FP21, Rhodamine-L-FP21, and Rhodamine-D-FP21 were purchased from ChinaPeptides (Shanghai, China) (Figure S3). Rat serum was obtained from Jianlun Biology Technology Co. (Guangzhou, China). Aminopeptidase M (leucine aminopeptidase, microsomal from porcine kidney Type VI − S, lyophilized powder, EC 3.4.11.2) and the Endotoxin-free Plasmid Maxiprep Kit used to purify the plasmid DNA before application were obtained from Sigma–Aldrich (USA). Cell Counting Kit-8 (CCK-8 Kit) was purchased from Beyotime Biotechnology (Tianjing, China). Odyssey Blocking Buffer was obtained from LI-COR Biosciences (Lincoln, Nebraska, USA). The plasmids encoding enhanced green fluorescence protein (EGFP; pEGFP-N) were purchased from KeyGEN BioTECH (Nanjing, China). The vector construction of GRO-α shRNA was pcDNA6.2-GW/Emgfp-miR (Invitrogen, Carlsbad, CA), and the target knockdown gene encoding was TGGTTTT GGCCACTG. […]
The L-FP21 and D-FP21 peptides were diluted to 0.5 mg/mL and incubated at 37 °C for 12 h for the biostability test against 20% rat serum. At predetermined time intervals, 100 μL of the sample was removed and analyzed using reverse-phase high-performance liquid chromatography (HPLC; Waters Acquity H-Class Bio, Waters Co. Ltd., Milford, MA) on a bridged ethylene hybrid (BEH) C18 column (2.1 mm ×50 mm, 1.7 μm) using a gradient method. […] The peptides were then analyzed as described above. […]

- time to complete degradation in rat serum [1]: ≤ 2 h
- time to complete degradation in aminopeptidase [2]: ≤ 6 h
Sequence: YTRDLVYGDPARPGIQGTGTF [L-FP21]
